Columns and labels:
[1] = target: T1, aldose reductase, originating from the lens of cattle (Bos taurus, UniProt P16116); test: Enzyme reaction inhibiting activity (aldose reductase, NADPH / D,L-glyceraldehyde, absorbance at 340 nm); assay type: biochemical; conditions: for inhibition at 0.1 µg: concentration of 0.1 γ, pH 6.0, 37° C.
T1 construct: originating from the lens of cattle, was employed after being subjected to a partial purification; from tissue; host or cells: lens of cattle, partially purified
Method: The preparation of aldose reductase and the determination of its enzyme reaction inhibiting activity were carried out pursuant to the procedures disclosed by Haymann et al. in Journal of Biological Chemistry, 240, 877 (1965).
The sample solution to be examined for inhibiting activity was prepared by dissolving an amount of a compound of formula (I) according to the present invention in a small amount of methanol and increasing the volume of the resulting methanol solution by diluting it with distilled water up to tenfold volume. As the enzyme, i.e. aldose reductase, originating from the lens of cattle, was employed after being subjected to a partial purification.
To 2.4 ml of 5×10^-5 M NADPH solution dissolved in a 2/15 M phosphate buffer solution (pH 6.0), 0.4 ml of the enzyme solution and 0.1 ml of the sample solution to be examined were added and the mixture was charged in a quartz cell in a photoelectric photometer and was subjected to preincubation at 37° C. for 4 mins. Then, 0.1 ml of a 0.015 M D,L-glyceraldehyde solution was added thereto for initiating the enzyme reaction and the decrease in the photoabsorbance at 340 nm was measured at 37° C. for 4 mins. The aldose reductase inhibiting activity calculated by [formula] in which A represents the enzyme reaction rate with addition of the inhibitor and B denotes the enzyme reaction rate without addition of the inhibitor.

[2] = tested on: sorbitol accumulation in lens; test: Activity for suppressing accumulation of sorbitol, tissue culture of lens; assay type: cell-based, Wistar rats; conditions: for Inhibition of Sorbite Accumulat. in Lens: concentration of 2.5 γ, rat lens cultured 20 hours with added glucose
Method: (§1) Lenses and sciatic nerves excised from 7 weeks-old male Wistar rats were washed twice with an aseptic buffer solution consisting of 0.3% trisaminomethane, 0.8% NaCl, 0.038% KCl, 0.025% Na2 HPO4.12H2 O, 0.1% glucose and 1.85 ml/1 of concentrated HCl.
(§2) The lenses and the sciatic nerves were then treated by a 30 mins. preculture in a culture medium prepared by adding 2 ml of 7.5% conc. aseptic NaHCO3 solution and 5.5 ml of aseptic calf fetus serum to 100 ml of an aseptic culture medium of 0.98% TC Medium 199 (supplied from the firm NISSUI) containing 0.01% of dihydrostreptomycin and 0.01% of benzyl-penicillin. Thereafter, the intrinsic culture was effected in a culture medium prepared by adding each sample solution to be examined and 0.09% of glucose to the above-mentioned culture medium and permitting culturing to proceed for 20 hours. The culturing was effected at 37° C. in an atmosphere composed of 95% air and 5% CO2.
(§3) After culturing, the cultured samples of lens and sciatic nerve were removed from the culture medium to filter paper and the weight of each of them was measured after the adherent culture solution had been blown off. Then, each of the cultured samples was homogenized with the addition of 1 ml of a cold 8% HClO4 solution and the homogenized mixture was subjected to centrifugation at 10,000 G for 10 mins., whereby a supernatant was obtained. The resulting precipitate was then homogenized again with addition thereto of 0.5 ml of cold 8% HClO4 solution and the homogenized mixture was again subjected to centrifugation in a similar way as above to obtain a further supernatant. This was combined with the previously obtained supernatant and the resulting solution was neutralized with 2 N KOH aq. solution and was diluted with distilled water to a volume of 5 ml. The precipitate formed by neutralization was separated by centrifugation at 3,000 rpm for 10 mins. and the resulting supernatant was employed as the sample for determining the sorbitol content.
(§4) The determination of the sorbitol content in the lens and in the sciatic nerve was carried out in accordance with the technique of Bergmeyer in "Methods of Enzymatic Analysis" edited by H.U. Bergmeyer, pp 1323-1326, Academic Press, New York, 1974 and in accordance with the technique proposed by Malaon et al. in "Diabetes" 29, 861-864 (1980).
(§5) To 0.5 ml of the sample solution for determination of sorbitol content obtained as above, 0.9 ml of 0.1 M glycine-KOH buffer solution (pH 9.4) containing 1 mM of NAD^+ and 0.1 ml of a solution of sorbitol dehydrogenase of 20 units/ml were added and the resulting mixture was subjected to incubation at 37° C. for 1 hour.
(§6) The content of sorbitol in each tissue was estimated by assuming the increment of the photoabsorbance at 340 nm to be proportional to the amount of NADH produced by the reaction for the lens and by detecting the fluorescence with an excitation wavelength of 366 nm and a fluorescence wavelength of 425 nm for the sciatic nerve.
(§7) The activity for suppressing accumulation of sorbitol, i.e. the aldose reductase inhibiting activity, was calculated from the determined sorbitol content by the calculation formula [formula] in which A denotes the content of sorbitol per unit weight of the tissue after cultivation with addition of the inhibitor, B denotes the sorbitol content per unit weight of the tissue after cultivation without addition of the inhibitor and C represents the sorbitol content per unit weight of the tissue after cultivation in the medium without addition of glucose and inhibitor.

[3] = tested on: sorbitol accumulation in sciatic nerve; test: Activity for suppressing accumulation of sorbitol, tissue culture of sciatic nerve; assay type: cell-based, Wistar rats; conditions: concentration of 1.0 γ; rat sciatic nerve cultured 20 hours with added glucose
Method: as §1, §2, §3, §4, §5, §6, §7

STD-DDY mice = test: Acute toxicity, oral; assay type: in vivo; conditions: orally 400 mg/20 ml/kg, dissolved with aqueous NaOH at pH 6.5-7.0, observed for 10 days
Method: Compounds of formula (I) according to the present invention, as given in the examples below or 2,2'-dimethoxy-5, 5'-bis(3-carboxypropyl) biphenyl, were suspended in distilled water and were dissolved completely by adding at least the equimolar amount of aqueous NaOH solution. […] No fatality was marked in any of the administered groups.

Molecule	aldose reductase inhibiting activity (in words) ([1]; tests according to 1) and 2), concentration not given)	activity for suppressing accumulation of sorbitol (in words) ([2]; tissue and concentration not stated)	inhibition at 0.1 µg [1] [%]	Inhibition of Sorbite Accumulat. in Lens [2] [%]	Inhibition of Sorbite Accum. in Sciatic N. [3] [%]	fatality (acute toxicity) (STD-DDY mice)
2,2'-dimethoxy-5, 5'-bis(3-carboxypropyl) biphenyl diester	did not exhibit any aldose reductase inhibiting activity	no activity for suppressing accumulation of sorbitol				
O=C(O)CCc1ccc(OCC2CCCCC2)c(-c2cc(CCC(=O)O)ccc2OCC2CCCCC2)c1 [2,2'-dicyclohexylmethoxy-5,5'-bis(2-carboxyethyl) biphenyl]			44	51		
O=C(O)CCCc1ccc(OCC2CCCCC2)c(-c2cc(CCCC(=O)O)ccc2OCC2CCCCC2)c1 [2,2'-dicyclohexylmethoxy-5,5'-bis(3-carboxypropyl) biphenyl]			45	57		
CCOc1ccc(CCC(=O)O)cc1-c1cc(CCC(=O)O)ccc1OCC [R=C2H5, n=2, 2,2'-diethoxy-5,5'-bis(2-carboxyethyl) biphenyl]			43	56	69	
CCOc1ccc(CCCC(=O)O)cc1-c1cc(CCCC(=O)O)ccc1OCC [R=C2H5, n=3, 2,2'-diethoxy-5,5'-bis(3-carboxypropyl) biphenyl]			77	76	80	
CCCOc1ccc(CCC(=O)O)cc1-c1cc(CCC(=O)O)ccc1OCCC [R=C3H7, n=2, 2,2'-dipropoxy-5,5'-bis(2-carboxyethyl) biphenyl]			35	66	67	
CCCOc1ccc(CCCC(=O)O)cc1-c1cc(CCCC(=O)O)ccc1OCCC [R=C3H7, n=3, 2,2'-dipropoxy-5,5'-bis(3-carboxypropyl) biphenyl]			57	68	67	
CCCCCOc1ccc(CCCC(=O)O)cc1-c1cc(CCCC(=O)O)ccc1OCCCCC [R=C5H11, n=3, 2,2'-dipentyloxy-5,5,'-bis(3-carboxypropyl) biphenyl]			48			
COc1ccc(CCC(=O)O)cc1-c1cc(CCC(=O)O)ccc1OC [R=CH3, n=2, 2,2'-dimethoxy-5,5'-bis(2-carboxyethyl) biphenyl]			44	76	85	
COc1ccc(CCCC(=O)O)cc1-c1cc(CCCC(=O)O)ccc1OC [R=CH3, n=3, 2,2'-dimethoxy-5,5'-bis (3-carboxypropyl) biphenyl]			63	85	92	No fatality

— US5155259A, “Aldose reductase inhibitor” (Toyo Jozo Kabushiki Kaisha, priority 1990, dated 1992)
